In patent publication US5593966A, “Peptide derivatives of cytochrome b558 and their use as medicaments” (The United States of America as represented by the …, priority 1990, dated 1997):
Where a SMILES comes first, the peptide text is derived from it.

Assays:
NADPH oxidase [1] = biological target: T1, NADPH oxidase (Homo sapiens, UniProt P14598); assay: Cell-free NADPH oxidase assay (arachidonate-stimulated O2 generation, neutrophil membrane plus cytosol); format: biochemical; details: for Mean inhibition vs. buffer control (n), Cell-free assay: 100 μM synthetic peptide, arachidonate-stimulated O2 production, mean of n experiments in duplicate
T1 construct: Neutrophils were electropermeabilized as described; endogenous in cells; host or cells: electropermeabilized peripheral blood neutrophils (PMN), stimulated with PMA or fMLP
T1 sequence (P14598 1-390): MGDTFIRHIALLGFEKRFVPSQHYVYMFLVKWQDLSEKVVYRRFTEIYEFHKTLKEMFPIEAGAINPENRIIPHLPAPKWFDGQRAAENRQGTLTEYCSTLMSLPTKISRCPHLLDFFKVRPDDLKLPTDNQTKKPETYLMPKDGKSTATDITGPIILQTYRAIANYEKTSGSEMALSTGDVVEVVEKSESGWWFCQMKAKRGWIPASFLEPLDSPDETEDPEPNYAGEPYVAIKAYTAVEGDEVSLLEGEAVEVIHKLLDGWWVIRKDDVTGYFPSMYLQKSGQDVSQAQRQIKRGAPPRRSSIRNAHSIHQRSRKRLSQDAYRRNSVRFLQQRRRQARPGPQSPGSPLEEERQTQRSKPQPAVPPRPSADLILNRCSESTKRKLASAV
Description: Neutrophils were isolated from peripheral blood and cytosol and membrane fractions were prepared by differential centrifugation as previously described (Nunoi et al, Science, 242, 1298-1301 (1988)). Typical yields of cytosol and membrane proteins obtained were 2.8±0.1 mg/10^8 cell equivalents and 1.5±0.1 μg/10^6 cell equivalents, respectively (mean±SD, 3 separate preparations). The cell-free assay of O2 generation was modified as follows: wells contained 2.5-5.0×10^5cell equivalents neutrophil membrane, 10^6 cell equivalents neutrophil cytosol in a final volume of 100 μl reaction mixture (150 μM acetylated ferricytochrome c (11), 4 mM MgCl2, 10 μM FAD, 1 mM EGTA, 200 μM NADPH, 40 μM arachidonic acid, 10 μM GTPγ S, ±25 μg/ml superoxide dismutase in 75 mM potassium phosphate, pH 7.0). Because membrane preparations varied in activity, the amount of membrane added per well was adjusted to yield an arachidonate-stimulated O2 production of ≈0.4 nmol/min/well in the absence of synthetic peptide. The maximal linear rate of superoxide dismutase-inhibitable acetylferricytochrome c reduction (ΔO.D. […]) was converted to nmol O2 generated/min using an instrument-corrected extinction coefficient derived empirically as described (Leslie, J. Immunol. Methods, 103, 253-259 (1987)). To measure oxidase inhibition by antibodies directed against the 91 kDa subunit of cytochrome b558 membranes were solubilized in 1% deoxycholate, incubated for 30 min on ice with an equal volume of serum at various dilutions. Diluting these samples 10-fold with H2 O lowered the detergent concentration below the CMC and allowed sedimentation (130,000 g×30 min) of an oxidase-competent membrane fraction. This fraction was resolubilized in deoxycholate, and assayed for arachidonate-stimulatedO2 generation in the presence of cytosol.
In Table 1 above, the cell-free assay of O2 generation contained 2.5-5.0×10^5 cell equivalents of neutrophil (PMN) membrane, 10^6 cell equivalents PMN cytosol in a final volume of 100 μl reaction mixture. Because membrane preparations varied in activity, the amount of membrane added per well was adjusted to yield an arachidonate-stimulated O2 production of ≈0.4 nmol/min/well in the absence of synthetic peptide. Data represent the mean percent inhibition obtained in n experiments (each performed in duplicate) in the presence of 100 μM synthetic peptide compared to a simultaneous buffer control.

NADPH oxidase [2] = biological target: T1, NADPH oxidase; assay: Permeabilized cell NADPH oxidase assay (electropermeabilized neutrophils stimulated with PMA or fMLP); format: cell-based; details: for Mean inhibition vs. buffer control (n), Electropermeabilized cell, PMA: PMA 10 ng/ml; for Mean inhibition vs. buffer control (n), Electropermeabilized cell, PMA / Mean inhibition vs. buffer control (n), Electropermeabilized cell, FMLP: preincubation with 800 μM peptide, assay with 200 μM peptide; for Mean inhibition vs. buffer control (n), Electropermeabilized cell, FMLP: fMLP 10 μM
Description: Neutrophils were electropermeabilized as described (Grinstein et al, J. Biol. Chem., 263, 1779-1783 (1988)), incubated on ice for 30 min in permeabilization buffer (140 mM KCl, 1 mM MgCl2, 1 mM EGTA, 0.193 mM CaCl2, 1 mM ATP, 2 mM NADPH, 10 μM GTP, 10 mM glucose, 10 mM HEPES-N-methylglucamine, pH 7) supplemented with synthetic peptide (800 μM). The cells were resuspended at 5×10^6 /ml in the same buffer containing 200 μM synthetic peptide, 150 μM acetylferricytochrome c, catalase (2500 U/ml), ±25 μg/ml superoxide dismutase. Wells containing 5×10^5 cells were stimulated with PMA (10 ng/ml) or fMLP (10 μM) and O2^-- production was determined as above.
Electropermeabilized PMN were incubated on ice in permeabilization buffer supplemented with synthetic peptide (800 μM). The cells were resuspended at 5×10^6 /ml in the same buffer containing 200 μM synthetic peptide. Wells containing 5×10^5 cells were stimulated with PMA (10 ng/ml) or fMLP (10 μM) and O2 production was determined as described in "Experimental Procedures". […] Electropermeabilized PMN sham incubated without synthetic peptides and stimulated with […] or fMLP generated 8.4±1.1 nmol O2 /min/10^6 cells and 8.9±1.7 nmol O2 /min/10^6 cells, respectively (mean±SEM, 5 independent experiments).

[3] = biological target: T2, 47 kDa cytosolic oxidase factor (Homo sapiens, UniProt P14598); assay: 47 kDa cytosolic protein phosphorylation in the cell-free reaction (immunoprecipitation, SDS-PAGE, autoradiography); format: biochemical; details: densitometry of autoradiograms; 3 independent experiments; read-out: Half-maximal inhibitory concentration, 47 kDa protein phosphorylation
T2 construct: endogenous in cells; host or cells: neutrophil cytosol, with neutrophil membrane, in the cell-free reaction
T2 sequence (P14598 1-390): T1 sequence (P14598 1-390)
Description: Components of the cell-free phosphorylation reaction were identical to those for arachidonate-stimulated O2^- generation except for omission of acetylferricytochrome c and inclusion of γ-[^32 P]ATP (0.1 μCi/ml, sp. act. 5000 Ci/mmol). Twenty min after addition of arachidonate, aliquots of the cell-free reaction mixture were mixed with an equal volume of iced "stopping" buffer (150 mM NaCl, 10 mM EDTA, 1% deoxycholate, 1% NP-40, 50 mMNaF, 1 mMNa vanadate, 10 mM Tris, pH 7.4). Proteins bound to rabbit antibodies raised against recombinant 47 kDa protein (Lomax et al, Science, 245, 409-412 (1989)), were precipitated with protein G-sepharose (Harlow et al, Antibodies: A Laboratory Manual (Cold Spring Harbor Laboratory), 465-468 (1988)) and analyzed by SDS-PAGE and autoradiography with intensifying screens.
After stimulation of the neutrophil respiratory burst with phorbol esters the 47 kDa cytosolic oxidase factor is multiply phosphorylated and associates with plasma membrane. […] The immunoprecipitated proteins were analyzed by SDS-PAGE and autoradiography as described above. […] The half-maximal inhibitory concentration of 91 kDa cytochrome b558 carboxyterminal peptide determined by densitometry of autoradiograms was in the range of 25-50 μM in each of 3 independent experiments.

Compound | Mean inhibition vs. buffer control (n), Cell-free assay (NADPH oxidase [1]) [%] | Mean inhibition vs. buffer control (n), Electropermeabilized cell, PMA (NADPH oxidase [2]) [%] | Mean inhibition vs. buffer control (n), Electropermeabilized cell, FMLP (NADPH oxidase [2]) [%] | IC50 (NADPH oxidase [1]; peptide and arachidonate added simultaneously, 5 experiments, IC50 by interpolation, read-out: Mean IC50 ±SEM, inhibition of NADPH oxidase activation) [µM] | IC50 [3] [µM] | Inhibition of O2 production by electropermeabilized neutrophils (in words) (NADPH oxidase [2]; stimulated with fMLP or PMA)
CC[C@H](C)[C@H](NC(=O)[C@@H](NC(=O)[C@H](C)NC(=O)[C@H](CCC(N)=O)NC(=O)[C@H](Cc1ccccc1)NC(=O)CNC(=O)[C@H](C)NC(=O)[C@H](Cc1c[nH]cn1)NC(=O)[C@H](C)NC(=O)[C@H](CCCNC(=N)N)NC(=O)[C@H](CCCCN)NC(=O)[C@@H](N)CCCNC(=N)N)[C@@H](C)O)C(=O)O [RKRAHAGFQATI] (H-RKRAHAGFQATI-OH) | -5 | -11 | -28 |  |  | 
CC[C@H](C)[C@H](NC(=O)[C@H](Cc1ccccc1)NC(=O)[C@H](Cc1c[nH]cn1)NC(=O)[C@@H](NC(=O)CNC(=O)[C@@H](N)CCCNC(=N)N)C(C)C)C(=O)N[C@@H](Cc1ccccc1)C(=O)O [RGVHFIF, Arg--Gly--Val--His--Phe--Ile--Phe] (H-RGVHFIF-OH) | 97 | 72 | 73 |  |  | 
NC(N)=NCCC[C@H](NC(=O)[C@H](Cc1ccccc1)NC(=O)[C@@H]1CCCN1C(=O)[C@H](CO)NC(=O)[C@H](Cc1ccccc1)NC(=O)CNC(=O)[C@@H]1CCCN1C(=O)[C@@H]1CCCN1C(=O)[C@@H](N)CCCN=C(N)N)C(=O)O [Bradykinin] (H-RPPGFSPFR-OH) | -8 | -8 | -6 |  |  | 
CC(C)[C@H](NC(=O)[C@H](C)NC(=O)[C@H](Cc1c[nH]c2ccccc12)NC(=O)[C@H](CC(N)=O)NC(=O)CN)C(=O)N[C@@H](CC(N)=O)C(=O)N[C@@H](CCC(=O)O)C(=O)NCC(=O)N[C@@H](CS)C(=O)O [GNWAVNEGC] (H-GNWAVNEGC-OH) | -17 |  |  |  |  | 
CC(C)C[C@H](NC(=O)[C@@H](N)Cc1c[nH]cn1)C(=O)N[C@@H](Cc1ccccc1)C(=O)N[C@@H](CC(N)=O)C(=O)N[C@H](C(=O)N[C@@H](CCC(=O)O)C(=O)N[C@@H](Cc1c[nH]c2ccccc12)C(=O)N[C@@H](CS)C(=O)O)C(C)C [HLFNVEWC] (H-HLFNVEWC-OH) | -17 | -6 | 6 |  |  | 
CC[C@H](C)[C@H](NC(=O)[C@H](Cc1ccccc1)NC(=O)[C@H](Cc1c[nH]cn1)NC(=O)[C@@H](NC(=O)CNC(=O)[C@H](CCCNC(=N)N)NC(=O)[C@@H]1CCCN1C(=O)CNC(=O)[C@H](CO)NC(=O)[C@H](CCC(=O)O)NC(=O)[C@H](CO)NC(=O)[C@H](CC(N)=O)NC(=O)[C@H](CO)NC(=O)[C@@H](N)CS)C(C)C)C(=O)N[C@@H](Cc1ccccc1)C(=O)N[C@@H](CC(N)=O)C(=O)N[C@@H](CCCCN)C(=O)N[C@@H](CCC(=O)O)C(=O)N[C@@H](CC(N)=O)C(=O)N[C@@H](Cc1ccccc1)C(=O)O (H-CSNSESGPRGVHFIFNKENF-OH) |  |  |  | 32 ± 2 | 25 to 50 | 

Continued, values first:

Mean inhibition vs. buffer control (n), Cell-free assay (NADPH oxidase [1]) [%] | Mean inhibition vs. buffer control (n), Electropermeabilized cell, PMA (NADPH oxidase [2]) [%] | Mean inhibition vs. buffer control (n), Electropermeabilized cell, FMLP (NADPH oxidase [2]) [%] | IC50 (NADPH oxidase [1]; peptide and arachidonate added simultaneously, 5 experiments, IC50 by interpolation, read-out: Mean IC50 ±SEM, inhibition of NADPH oxidase activation) [µM] | IC50 [3] [µM] | Inhibition of O2 production by electropermeabilized neutrophils (in words) (NADPH oxidase [2]; stimulated with fMLP or PMA) | Compound
96 |  |  |  |  |  | CC[C@H](C)[C@H](NC(=O)[C@H](Cc1ccccc1)NC(=O)[C@H](Cc1c[nH]cn1)NC(=O)[C@@H](NC(=O)CNC(=O)[C@H](CCCNC(=N)N)NC(=O)[C@@H]1CCCN1C(=O)CNC(=O)[C@H](CO)NC(=O)[C@H](CCC(=O)O)NC(=O)[C@H](CO)NC(=O)[C@H](CC(N)=O)NC(=O)[C@@H](N)CO)C(C)C)C(=O)N[C@@H](Cc1ccccc1)C(=O)N[C@@H](CC(N)=O)C(=O)N[C@@H](CCCCN)C(=O)N[C@@H](CCC(=O)O)C(=O)N[C@@H](CC(N)=O)C(=O)N[C@@H](Cc1ccccc1)C(=O)O [SNSESGPRGVHFIFNKENF] (H-SNSESGPRGVHFIFNKENF-OH)
10 | 3 | -5 |  |  |  | CSCC[C@H](NC(=O)[C@H](CO)NC(=O)[C@H](Cc1ccccc1)NC(=O)[C@@H](N)C(C)C)C(=O)N[C@@H](Cc1ccccc1)C(=O)N[C@@H](CCC(N)=O)C(=O)NCC(=O)N[C@@H](CCC(=O)O)C(=O)N[C@@H](CCC(=O)O)C(=O)N[C@@H](CO)C(=O)O [VFSMFQGEES] (H-VFSMFQGEES-OH)
93 | 61 | 67 |  |  | inhibited | RGVHFIFNKENF [Residues 559-570 of the 91 kDa subunit of cytochrome b558]
-8 | -1 | 2 |  |  |  | NC(=O)C[C@H](NC(=O)[C@@H](N)CO)C(=O)N[C@@H](CO)C(=O)N[C@@H](CCC(=O)O)C(=O)N[C@@H](CO)C(=O)NCC(=O)N1CCC[C@H]1C(=O)O [SNSESGP] (H-SNSESGP-OH)
